Where “and” joins values, the source holds several entries; their conditions need not be identical. Identical values can stand only once. Inconclusive results and toxic doses are left out.
Test system: nude mice, LOX melanoma ip, survival T/C
Assay: NCI In Vivo Anticancer Drug Screen. Data for tumor model Human Amelanotic Melanoma (LOX) (intraperitoneal) in NU/NU BALB/C (nude) mice
Settings: endpoint: median survival time, higher = longer survival
Method: The antitumor activity of compounds was measured in mice bearing transplantable tumors. Survival or tumor size were measured and the results are expressed as the measurement made in the treated group (T) divided by the measurement made in the vehicle treated control group (C). The tumor model used in this assay is Human Amelanotic Melanoma (LOX) (intraperitoneal) in NU/NU BALB/C (nude) mice

[1] = dose: 50.0 mg/kg/injection, schedule: Q04DX003 (ip), vehicle: Klucel (hydroxypropylcellulose) (HPC)
[2] = dose: 100.0 mg/kg/injection, schedule: Q04DX003 (ip), vehicle: Klucel (hydroxypropylcellulose) (HPC)
[3] = dose: 150.0 mg/kg/injection, schedule: Q04DX003 (ip), vehicle: saline with Tween-80
[4] = dose: 50.0 mg/kg/injection, schedule: Q04DX003 (ip), vehicle: saline with Tween-80
[5] = dose: 100.0 mg/kg/injection, schedule: Q04DX003 (ip), vehicle: saline with Tween-80
[6] = dose: 200.0 mg/kg/injection, schedule: Q04DX003 (ip), vehicle: saline with Tween-80
[7] = dose: 12.5 mg/kg/injection, schedule: Q04DX003 (ip), vehicle: saline with Tween-80
[8] = dose: 25.0 mg/kg/injection, schedule: Q04DX003 (ip), vehicle: saline with Tween-80

What does the source list for `CN1C2C=CC(=O)C1C1C(=O)N(c3ccccc3)C(=O)C12` (configuration not stated)?
T/C [1]: 100 % of control; T/C [2]: 96 % of control; T/C (dose: 200.0 mg/kg/injection, schedule: Q04DX003 (ip), vehicle: Klucel (hydroxypropylcellulose) (HPC)): 99 % of control; T/C (dose: 400.0 mg/kg/injection, schedule: Q04DX003 (ip), vehicle: Klucel (hydroxypropylcellulose) (HPC)): 100 % of control

Which T/C (dose: 37.5 mg/kg/injection, schedule: Q04DX003 (ip), vehicle: saline with Tween-80) does the source give for `CCCCCCNc1nc(NCCCCCC)c2[nH]c(NCCCCCC)nc2n1` here?
Its T/C is 123 % of control.

What about the T/C [3] of the same compound?
The T/C was 122 % of control.

Which T/C (dose: 25.0 mg/kg/injection, schedule: Q04DX003 (ip), vehicle: Klucel (hydroxypropylcellulose) (HPC)) does the source give for `O=c1[nH]cnc2c1cnn2CN1CCOCC1` here?
Its T/C is 93 % of control.

And the T/C [1]?
The T/C was 123 % of control.

What about the T/C [2] of the same compound?
Its T/C is 109 % of control.

What does the source list for `COc1cc(C2CC(C)(O)Oc3cc4c(cc32)OCO4)cc(OC)c1OC` (configuration not stated)?
T/C [4]: 109 % of control and 98 % of control; T/C [5]: 96 % of control; T/C [6]: 93 % of control

Which results are given for `O=NNc1ccc2cccnc2n1`?
T/C (dose: 9.38 mg/kg/injection, schedule: Q04DX003 (ip), vehicle: water): 99 % of control; T/C (dose: 18.75 mg/kg/injection, schedule: Q04DX003 (ip), vehicle: water): 120 % of control; T/C (dose: 37.5 mg/kg/injection, schedule: Q04DX003 (ip), vehicle: water): 157 % of control; T/C (dose: 75.0 mg/kg/injection, schedule: Q04DX003 (ip), vehicle: water): 192 % of control; T/C (dose: 150.0 mg/kg/injection, schedule: Q04DX003 (ip), vehicle: water): 214 % of control

With `O=[N+]([O-])c1ccc(N(CCO)CCO)c2c1no[n+]2[O-]` as the compound, how does the T/C (dose: 6.25 mg/kg/injection, schedule: Q04DX003 (ip), vehicle: saline with Tween-80) read?
The T/C was 99 % of control.

And the T/C [7]?
Its T/C is 106 % of control.

What about the T/C [8] of the same compound?
The T/C was 111 % of control.

And the T/C [4]?
The T/C was 93 % of control.

And the T/C [5]?
The T/C was 115 % of control.

What does the source list for `Nc1nc(Br)nc2c1ncn2C1CC(O)C(CO)O1` (configuration not stated)?
T/C [7]: 99 % of control; T/C [8]: 106 % of control; T/C [4]: 104 % of control; T/C [5]: 104 % of control; T/C [6]: 93 % of control

`Cc1cc(Br)c2nsnc2c1[N+](=O)[O-]` was tested. Which T/C (dose: 75.0 mg/kg/injection, schedule: Q04DX003 (ip), vehicle: saline with Tween-80) did it give?
The T/C was 112 % of control.

What about the T/C [3] of the same compound?
The T/C was 103 % of control.

What about the T/C (dose: 300.0 mg/kg/injection, schedule: Q04DX003 (ip), vehicle: saline with Tween-80) of the same compound?
Its T/C is 112 % of control.

What about the T/C (dose: 600.0 mg/kg/injection, schedule: Q04DX003 (ip), vehicle: saline with Tween-80) of the same compound?
Its T/C is 124 % of control.

And the T/C (dose: 1200.0 mg/kg/injection, schedule: Q04DX003 (ip), vehicle: saline with Tween-80)?
Its T/C is 114 % of control.

How did the T/C [4] turn out when `CCCCOCN(COCCCC)C12CC3CC(CC(C3)C1)C2` was run?
The T/C was 106 % of control.

And the T/C [5]?
The T/C was 97 % of control.

What about the T/C [6] of the same compound?
Its T/C is 114 % of control.

And the T/C (dose: 400.0 mg/kg/injection, schedule: Q04DX003 (ip), vehicle: saline with Tween-80)?
The T/C was 120 % of control.

Which T/C (dose: 1.0 mg/kg/injection, schedule: Q01DX009 (ip), vehicle: saline) does the source give for `Nc1ccn([C@@H]2C=C(CO)[C@@H](O)[C@H]2O)c(=O)n1` here?
The T/C was 219 % of control.

What does the source list for `C/C(=N\NC(=O)c1ccccc1O)c1cccc(/C(C)=N/NC(=O)c2ccccc2O)n1`?
T/C (dose: 50.0 mg/kg/injection, schedule: Q04DX003 (ip), vehicle: saline): 116 % of control; T/C (dose: 100.0 mg/kg/injection, schedule: Q04DX003 (ip), vehicle: saline): 154 % of control

How did the T/C (dose: 75.0 mg/kg/injection, schedule: Q04DX003 (ip), vehicle: distilled water + alcohol) turn out when `Cc1cc(=NO)cc(C)n1O` was run?
Its T/C is 101 % of control.

And the T/C (dose: 150.0 mg/kg/injection, schedule: Q04DX003 (ip), vehicle: distilled water + alcohol)?
Its T/C is 103 % of control.

What about the T/C (dose: 300.0 mg/kg/injection, schedule: Q04DX003 (ip), vehicle: distilled water + alcohol) of the same compound?
The T/C was 101 % of control.

What about the T/C (dose: 600.0 mg/kg/injection, schedule: Q04DX003 (ip), vehicle: distilled water + alcohol) of the same compound?
Its T/C is 96 % of control.

For `CC(=O)O[C@H]1C(=O)[C@@]2(C)C(C(OC(=O)c3ccccc3)[C@]3(O)C[C@H](OC(=O)C(OC(=O)CCCC(=O)NCCCN(C)C)C(NC(=O)c4ccccc4)c4ccccc4)C(C)=C1C3(C)C)C1(OC(C)=O)COC1C[C@@H]2O` (some centres not stated), which T/C (dose: 2.5 mg/kg/injection, schedule: Q01DX009 (ip), vehicle: water) is on record?
The T/C was 155 % of control.

What about the T/C (dose: 5.0 mg/kg/injection, schedule: Q01DX009 (ip), vehicle: water) of the same compound?
Its T/C is 156 % of control.

What about the T/C (dose: 10.0 mg/kg/injection, schedule: Q01DX009 (ip), vehicle: water) of the same compound?
Its T/C is 157 % of control and 225 % of control.

And the T/C (dose: 20.0 mg/kg/injection, schedule: Q01DX009 (ip), vehicle: water)?
The T/C was 205 % of control and 310 % of control.

— PubChem BioAssay AID280 (DTP/NCI, 2004)
